# Assay results from patent publication US11499978B2, “Method for measuring quality of therapeutic cell through real-time glutathione measurement” (CELL2IN, INC., priority 2017, dated 2022).
# How the values were obtained:
# T cells = experiment: Anti-inflammatory effect of treated hUC-MSCs on T cells; format: cell-based; settings: hUC-MSCs treated with 125 or 250 μg/mL AA2G for three days
# Description: The inventors observed an effect of the material on stem cells by treating each stem cells with a material for enhancing a glutathione evaluation parameter. When hUC-MSCs were subcultured in a L-AA2G-containing medium, CFU-F, migration capacity, and an anti-inflammatory effect were observed. A CFU-F assay (n=3) was performed by treating hUC-MSCs with 125 or 250 μg/mL of AA2G for three days. As shown in FIGS. 16A and 16B, it was confirmed that, when AA2G was treated, CFU-F increased. In addition, as hUC-MSCs were treated with 125 or 250 μg/mL of AA2G for three days, PDGF-AA-induced migration capacity (n=3) was analyzed. As shown in FIGS. 17A and 17B, it was confirmed that the migration capacity was increased by AA2G treatment. In addition, the reduction in T cell proliferation, the reduction in T cell differentiation, and the promotion of Treg cell differentiation were observed by treating hUC-MSCs with 125 or 250 μg/mL of AA2G for three days.
# In addition, hUC-MSCs were cultured with ferrostatin-1 (0.2, 1, 2 and 4 μM) and liproxstatin-1 (0.1, 0.5, 1 and 2 μM), which control a glutathione level in cells by inhibiting lipid oxidation. […] Meanwhile, the hUC-MSCs were treated with 1 μM ferrostatin-1 for 24 hours, 0.2 mM GGC for 2 hours, and 2 mM GSH-EE for 2 hours. As a result, the reduction in T cell proliferation ability and the reduction in T cell differentiation capacity were observed, and promotion of Treg cell differentiation was observed.
# hUC-MSCs = experiment: FreSH-Tracer-based glutathione regeneration capacity (GRC) in hUC-MSCs; parameters: species or system human; settings: hUC-MSCs subcultured three times with AA2G 250 μg/mL; low concentration of diamide; compared with naive cell group
# Description: GRC refers to a value obtained by real-time monitoring of FR after living cells are treated with an oxidizing agent, as calculated by dividing a value obtained by subtracting AUC of a group treated with 0.1-100 mM N-ethylmaleimide (NEM) from FR AUC of an oxidizing agent (diamide, H2O2, etc.)-treated group by a value obtained by subtracting the AUC of NEM-treated group from AUC of the untreated control, and multiplying the resulting value by 100. The FR of the NEM-treated group is a value for increasing the sensitivity of a GRC value by treating it as the blank value of the FR of the cells of interest. […] To remove the MitoFreSH-Tracer from the medium before measurement, the medium was exchanged with fresh 10 mM HEPES-containing HBSS(Hanks' Balanced Salt Solution), and a fluorescence image was obtained using a confocal imaging system, Operetta. By comparing GSH levels quantified from control cells not treated with RSL3 or control cells before treated with RSL3, the distribution of GSH expression-changed cells was calculated. Based on the point where the distribution histogram is divided into two peaks, the cells were divided into GSH^High cells (right peak) and GSH^Low cells (left peak), and then a ratio of corresponding cells was expressed as a percentage (%). […]
compound,measurement,setting,value
"O=C1O[C@H]([C@@H](O)CO)C(O)=C1O[C@H]1O[C@H](CO)[C@@H](O)[C@H](O)[C@H]1O [AA2G, ascorbic acid 2-glucoside]",T cell differentiation,T cells,reduction
same,T cell proliferation,T cells,reduction
same,Treg cell differentiation,T cells,promotion
same,anti-inflammatory effect of stem cells,T cells,exhibited
same,FreSH-Tracer-based GRC,hUC-MSCs,increased
